Test results from ChEMBL document CHEMBL1129539, “2,4-diamino-5-deaza-6-substituted pyrido[2,3-d]pyrimidine antifolates as potent and selective nonclassical inhibitors of dihydrofolate reductases” (J Med Chem, 1996).

What was measured:
Dihydrofolate reductase [1] = molecular target: T1, Dihydrofolate reductase (Rattus norvegicus, UniProt Q920D2)
T1 sequence (Q920D2 whole entry): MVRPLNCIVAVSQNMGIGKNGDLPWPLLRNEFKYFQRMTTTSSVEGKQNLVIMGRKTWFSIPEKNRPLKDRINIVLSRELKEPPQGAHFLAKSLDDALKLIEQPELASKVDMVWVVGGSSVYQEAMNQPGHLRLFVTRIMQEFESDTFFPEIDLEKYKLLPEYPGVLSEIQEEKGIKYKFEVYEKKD
Description: Inhibitory activity against rat liver dihydrofolate reductase (in 90 uM dihydrofolic acid)

[2] = molecular target: T2, Bifunctional dihydrofolate reductase-thymidylate synthase (Toxoplasma gondii, UniProt Q07422)
T2 sequence (Q07422 whole entry): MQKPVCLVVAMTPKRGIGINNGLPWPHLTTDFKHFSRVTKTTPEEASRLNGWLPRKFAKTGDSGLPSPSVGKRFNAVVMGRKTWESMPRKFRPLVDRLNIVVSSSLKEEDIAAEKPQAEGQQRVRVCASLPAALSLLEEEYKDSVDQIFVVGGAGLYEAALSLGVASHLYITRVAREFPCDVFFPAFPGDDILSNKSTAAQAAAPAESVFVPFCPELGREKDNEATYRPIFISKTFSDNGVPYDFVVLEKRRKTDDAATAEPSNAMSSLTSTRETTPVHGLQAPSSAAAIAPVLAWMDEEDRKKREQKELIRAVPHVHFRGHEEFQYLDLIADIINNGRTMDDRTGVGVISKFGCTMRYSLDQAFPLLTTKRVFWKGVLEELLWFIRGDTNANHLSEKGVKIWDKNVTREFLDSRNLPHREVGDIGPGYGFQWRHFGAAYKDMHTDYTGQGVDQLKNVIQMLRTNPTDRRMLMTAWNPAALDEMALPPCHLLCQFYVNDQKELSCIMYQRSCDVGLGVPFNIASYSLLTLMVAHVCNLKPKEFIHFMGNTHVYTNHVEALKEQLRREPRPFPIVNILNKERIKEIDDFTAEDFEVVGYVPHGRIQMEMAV
Description: Inhibitory activity against Toxoplasma gondii dihydrofolate reductase (in 90 uM dihydrofolic acid)

Dihydrofolate reductase [3] = molecular target: T3, Dihydrofolate reductase (Homo sapiens, UniProt P00374); experiment: Inhibitory activity against recombinant human dihydrofolate reductase(in 50 uM dihydrofolic acid)
T3 sequence (P00374 whole entry): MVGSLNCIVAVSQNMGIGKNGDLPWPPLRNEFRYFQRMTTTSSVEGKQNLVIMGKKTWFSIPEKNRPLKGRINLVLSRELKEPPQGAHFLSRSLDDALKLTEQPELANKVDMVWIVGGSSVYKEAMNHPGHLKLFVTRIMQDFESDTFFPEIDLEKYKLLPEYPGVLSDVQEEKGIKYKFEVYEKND

Dihydrofolate reductase [4] = molecular target: T4, Dihydrofolate reductase (Pneumocystis carinii, UniProt P16184)
T4 sequence (P16184 whole entry): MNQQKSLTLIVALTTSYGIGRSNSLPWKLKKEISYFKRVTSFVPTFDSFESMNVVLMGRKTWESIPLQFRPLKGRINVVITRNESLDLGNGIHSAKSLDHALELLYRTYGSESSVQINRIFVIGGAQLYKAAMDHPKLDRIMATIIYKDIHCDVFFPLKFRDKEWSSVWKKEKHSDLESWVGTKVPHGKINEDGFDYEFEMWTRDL
Description: Inhibitory activity against Pneumocystis carinii dihydrofolate reductase (in 90 uM dihydrofolic acid)

[5] = molecular target: T2, Bifunctional dihydrofolate reductase-thymidylate synthase; remark: listed apart in the source
Description: Inhibitory activity against Toxoplasma gondii dihydrofolate reductase (in 50 uM dihydrofolic acid)

Dihydrofolate reductase [6] = molecular target: Dihydrofolate reductase (Lactobacillus casei, UniProt P00381); experiment: Inhibitory activity against recombinant lc dihydrofolate reductase(in 50 uM dihydrofolic acid); design: species or system Lacticaseibacillus casei
Chain of Dihydrofolate reductase (Lactobacillus casei, UniProt P00381) (P00381 whole entry): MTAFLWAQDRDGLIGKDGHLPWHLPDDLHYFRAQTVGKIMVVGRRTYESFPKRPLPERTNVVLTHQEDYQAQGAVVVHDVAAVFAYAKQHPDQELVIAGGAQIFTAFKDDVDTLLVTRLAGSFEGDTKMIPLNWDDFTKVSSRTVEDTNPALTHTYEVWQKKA

Dihydrofolate reductase [7] = molecular target: T5, Dihydrofolate reductase (Escherichia coli, UniProt P0ABQ4); experiment: Inhibitory activity against recombinant ec dihydrofolate reductase(in 50 uM dihydrofolic acid)
T5 sequence (P0ABQ4 whole entry): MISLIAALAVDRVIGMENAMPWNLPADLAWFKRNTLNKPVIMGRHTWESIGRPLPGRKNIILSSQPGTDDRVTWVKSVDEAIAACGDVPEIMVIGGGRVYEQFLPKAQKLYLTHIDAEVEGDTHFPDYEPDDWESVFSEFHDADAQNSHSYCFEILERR

Structure (SMILES) | IC50 (Dihydrofolate reductase [1]) | IC50 (Dihydrofolate reductase [3]) | IC50 (Dihydrofolate reductase [4]) | IC50 [2] | IC50 [5] | IC50 (Dihydrofolate reductase [6]) | IC50 (Dihydrofolate reductase [7])
COc1ccc(OC)c(CNc2cnc3nc(N)nc(N)c3c2)c1 | – | – | – | 0.31 µM | 0.5 µM | – | –
Nc1nc(N)c2cc(NCc3cccc4ccccc34)cnc2n1 | 0.24 µM | – | 3.9 µM | 0.98 µM | – | – | –
COc1ccc(CNc2cnc3nc(N)nc(N)c3c2)cc1OC | 1.5 µM | – | 4.8 µM | 0.73 µM | – | – | –
Nc1nc(N)c2cc(NCCc3ccccc3)cnc2n1 | 0.28 µM | – | 1.94 µM | 4.45 µM | – | – | –
COc1cc(C(C)Nc2cnc3nc(N)nc(N)c3c2)cc(OC)c1OC (stereo unspecified) | 1.27 µM | – | 9.2 µM | 0.194 µM | – | – | –
COc1cc(CNc2cnc3nc(N)nc(N)c3c2)cc(OC)c1OC | – | – | – | 0.35 µM | 1.3 µM | – | –
Nc1nc(N)c2cc(NCc3ccccc3)cnc2n1 | 2.1 µM | 6.2 µM | – | 0.52 µM | – | – | –
Nc1nc(N)c2cc(NCc3ccc(Oc4ccccc4)cc3)cnc2n1 | 2.9 µM | – | 24.3 µM | 3.7 µM | – | – | –
CCOc1cc(Cc2cnc(N)nc2N)cc(OCC)c1-n1cccc1 [EPIROPRIM] | 73 µM | – | – | 0.47 µM | – | – | –
COc1ccc(CNc2cnc3nc(N)nc(N)c3c2)c(OC)c1OC | 3.24 µM | – | 15.3 µM | 0.67 µM | – | – | –
CN(CCc1ccccc1)c1cnc2nc(N)nc(N)c2c1 | 1.4 µM | – | 1.8 µM | 0.92 µM | – | – | –
COc1cc(CNc2cnc3nc(N)nc(N)c3c2)cc(OC)c1 | – | – | – | 1.2 µM | – | – | –
CN(Cc1ccc(C(=O)NC(=O)[C@H](N)CCC(=O)O)cc1)c1cnc2nc(N)nc(N)c2c1 | – | 0.65 µM | – | – | – | 0.17 µM | 0.013 µM

Second part, led by results:

IC50 (Dihydrofolate reductase [1]) | IC50 (Dihydrofolate reductase [3]) | IC50 (Dihydrofolate reductase [4]) | Structure (SMILES) | IC50 [2] | IC50 [5] | IC50 (Dihydrofolate reductase [6]) | IC50 (Dihydrofolate reductase [7])
1.2 µM | – | – | COc1cc(OC)c(CNc2cnc3nc(N)nc(N)c3c2)c(OC)c1 | 0.23 µM | – | – | –
0.03 µM | 0.53 µM | 0.079 µM | COc1ccc(CN(C)c2cnc3nc(N)nc(N)c3c2)c(OC)c1OC | 0.026 µM | 0.026 µM | – | –
0.37 µM | – | 15.4 µM | COc1ccc2c(CNc3cnc4nc(N)nc(N)c4c3)cccc2c1 | 0.71 µM | – | – | –
1.1 µM | – | 5.5 µM | COc1cc(OC)c(OC)cc1CNc1cnc2nc(N)nc(N)c2c1 | 0.48 µM | – | – | –
0.033 µM | – | 0.061 µM | COc1cc(CN(C)c2cnc3nc(N)nc(N)c3c2)cc(OC)c1OC | 0.014 µM | – | – | –
0.072 µM | 2.9 µM | – | COc1cc(CN(C)c2cnc3nc(N)nc(N)c3c2)cc(OC)c1 | 0.031 µM | 0.029 µM | – | –
0.43 µM | – | 8.2 µM | COc1ccc(CNc2cnc3nc(N)nc(N)c3c2)c2ccccc12 | 0.38 µM | – | – | –
0.14 µM | 0.7 µM | 0.068 µM | CN(Cc1ccccc1)c1cnc2nc(N)nc(N)c2c1 | 0.032 µM | 0.035 µM | – | –
0.057 µM | 8.5 µM | – | COc1ccc(OC)c(CN(C)c2cnc3nc(N)nc(N)c3c2)c1 | – | – | 5.7 µM | 0.14 µM
